{
  "source": "patent US12012373B2",
  "about": "“Cannabinoid derivatives” (CANOPY GROWTH CORPORATION, priority 2019, dated 2024)",
  "key": {"human CB1 receptor [1]": {"molecular_target": "T1, human CB1 receptor (Homo sapiens, UniProt P21554)", "T1 sequence (P21554 whole entry)": "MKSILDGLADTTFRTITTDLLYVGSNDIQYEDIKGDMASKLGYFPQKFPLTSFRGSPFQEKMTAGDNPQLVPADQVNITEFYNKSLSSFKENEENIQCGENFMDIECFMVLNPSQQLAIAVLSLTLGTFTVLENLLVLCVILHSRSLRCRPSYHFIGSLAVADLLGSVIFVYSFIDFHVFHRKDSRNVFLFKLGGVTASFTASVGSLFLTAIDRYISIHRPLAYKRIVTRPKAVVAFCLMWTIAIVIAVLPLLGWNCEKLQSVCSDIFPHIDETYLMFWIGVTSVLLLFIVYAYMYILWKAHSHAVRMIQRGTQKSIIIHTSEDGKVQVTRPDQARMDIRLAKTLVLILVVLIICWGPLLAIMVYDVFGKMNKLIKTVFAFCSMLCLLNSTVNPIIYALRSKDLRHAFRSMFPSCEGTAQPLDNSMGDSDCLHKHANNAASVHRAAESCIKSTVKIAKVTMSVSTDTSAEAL", "experiment": "CB1 receptor AequoScreen functional assay (agonist mode)", "assay_type": "cell-based", "design": "Perkin Elmer (host cells ES-000-A24); host or cells: CHO-K1 aeq/G16 (transient, FuGene)", "excerpt": "Aequorin is a photoprotein originating from the jellyfish Aequorea Victoria. The apo-enzyme (apoaequorin) requires a hydrophobic prosthetic group, coelenterazine, to be converted to aequorin, the active form of the enzyme. […] Upon calcium binding, aequorin oxidizes coelenterazine into coelenteramide with the production of CO2 and emission of light. The consumption of aequorin is proportional to the calcium concentration. Therefore, measurement of the light emitted upon oxidation of coelenterazine is a reliable tool for measurement of intracellular calcium flux. […]\nFuGene from Promega (Catalog number selected: E2691) was used to transiently transfect CHO-K1 aeq/G16 cells with an expression vector containing the open reading frame (ORF) expression clone for CNR1 (NM_016083.4; bacterial stock; Gencopeia Inc.) at a ratio of 15 ng of plasmid DNA to 480,000 cells. […]\nAfter incubation, the mixture was diluted 3-fold in assay media and kept under constant gentle agitation at room temperature. […] Cells were injected automatically over the serial diluted test compounds and CP55,940 using a liquid dispenser, and the luminescence was recorded over 10-30 seconds in a microplate reader.\nSigmoidal dose-response curves were generated using average Luminescent Counts Per Second (LCPS) which were recorded immediately after cells were mixed with compounds in agonist mode."}, "human CB2 receptor": {"molecular_target": "T2, human CB2 receptor (Homo sapiens, UniProt P34972)", "T2 construct": "membranes prepared in house", "T2 sequence (P34972 whole entry)": "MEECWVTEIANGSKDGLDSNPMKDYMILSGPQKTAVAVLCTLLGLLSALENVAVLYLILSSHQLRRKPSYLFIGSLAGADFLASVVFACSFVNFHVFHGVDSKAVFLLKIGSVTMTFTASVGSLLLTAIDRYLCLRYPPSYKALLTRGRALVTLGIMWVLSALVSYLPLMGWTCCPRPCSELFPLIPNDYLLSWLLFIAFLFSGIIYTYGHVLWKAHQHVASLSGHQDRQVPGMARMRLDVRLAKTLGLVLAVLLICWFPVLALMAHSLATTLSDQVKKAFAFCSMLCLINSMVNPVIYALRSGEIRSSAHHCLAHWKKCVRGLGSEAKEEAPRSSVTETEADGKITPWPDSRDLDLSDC", "experiment": "CB2 radioligand competitive binding assay ([3H]CP 55,940 displacement)", "description": "Compounds of the present disclosure were tested for CB1 receptor binding affinity and for CB2 receptor binding affinity. As used herein, “binding affinity” is represented by the IC50 value, which was experimentally determined as described herein. The lower the IC50 value the higher the binding affinity. A compound of the present disclosure may be said to have “binding selectivity” If it has a higher binding affinity for one receptor compared to the other.\nThe membranes were prepared from CHO-K1 (Chinese hamster ovary) cells stably transfected with the human CB2 receptor (Cat. #ES-111-C; Perkin Elmer, Boston, MA). The cells were grown adherently and maintained in Ham's F12 medium containing 10% fetal bovine serum (FBS), penicillin, streptomycin and geneticin (G418) at 37° C. in a humid atmosphere of 5% CO2 following the manufacturer's Instructions.\nFor membrane preparation the cells were washed with PBS and scraped off the plates in cold homogenization buffer (25 mM HEPES (pH 7.4), 2 mM EDTA) containing protease inhibitor cocktail (Sigma Cat. #P8340). The cell suspension was homogenized with a Pro-PK-01200D Polytron Homogenizer (Pro Scientific) and then centrifuged for 30 min at 120,000×g. The supernatant was discarded and the pellet was re-suspended in the homogenization buffer and stored at −80° C. until the time of use.\nIn this experiment, 3H radiolabeled CP 55,940, i.e. [3H]CP 55,940 (Perkin Elmer, Boston, MA), was used as a radioligand for the CB2 receptor to determine the binding affinity of compounds for the CB2 receptor (Scheme 8; above).\nThe competition binding experiments (single dose and dose-response) were performed by incubating 0.6 nM of [3H]CP55,940 (specific activity 101 Ci/mmol, Perkin Elmer) and different concentrations of compounds disclosed herein with membranes prepared as above from CHO-K1 cells expressing human CB2 receptor (1 μg of protein/well), 50 mM Tris-HCl (pH 7.4), 5 mM MgCl2, 1 mM CaCl2, and 2 mg/mL BSA.\nFor the single dose experiments, the compound stocks (usually 10 mM in DMSO) were diluted to working stocks in the binding buffer to give the final compound concentrations of 10 μM and 1 μM. For the dose-response experiments the test compounds were sequentially diluted to provide the desired concentration range for the IC50 determination. In each case the compounds were pre-incubated with the membrane for 20 min, before adding the radioligand.\nAfter incubation with the radioligand for 60 min at 37° C., the incubation was terminated by rapid filtration of assay mixture through MultiScreen®HTS^+ 96-well filter plates (Millipore, Cat. #MSFCNXB), pre-soaked for 60 min with 50 mM Tris-HCl (pH 7.4) containing 0.33% polyethylenimine (PEI). The nonspecific binding (NSB) was determined in the presence of 10 μM unlabeled CP55,940. After drying the filter plate at 50° C. for at least 60 min, the filter-bound radioactivity was determined by scintillation spectrometry using the 1450 MicroBeta Plate Counter (Perkin Elmer, Boston, MA). From the dose-response experiments, the IC50 values were determined (see Table 1, CB2 IC50)."}, "human CB1 receptor [2]": {"molecular_target": "T1, human CB1 receptor", "experiment": "biochemical", "assay_type": "binding", "design": "membranes prepared in house"}, "human CB1 receptor [3]": {"molecular_target": "T1, human CB1 receptor", "experiment": "PathHunter β-Arrestin functional assay, CB1 receptor, agonist mode", "assay_type": "cell-based", "design": "membranes prepared in house", "excerpt": "In the PathHunter® β-Arrestin system from DiscoveRx (Eurofins, Fremont, CA), a small peptide, the ProLink™ (PK), is fused to the intracellular sequence of a GPCR target, and a complementing peptide, the enzyme acceptor (EA) fragment, is fused to β-arrestin. After binding to its specific ligand, the GPCR target recruits β-arrestin, forcing the complementation of the two β-galactosidase enzyme fragments (EA and PK) to produce a functional β-galactosidase enzyme. The enzyme activity, and thus the amount of ligand bound to the GPCR, is detected with a single addition of a reagent cocktail to lyse the cells and produce a chemiluminescent signal before being analyzed using a traditional plate reader.\nPathHunter® CHO-K1 CNR1 β-Arrestin cells (DiscoverRx, cat. Number 93-0959C2) stably expressing CB1 receptor (CB1R) were grown in Ham's F12 medium curtaining 10% fetal bovine serum (FBS), 1% penicillin/streptomycin, 300 μg/mL Hygromycin B and 800 μg/mL geneticin (G418) and maintained in 37° C. incubators at 5% CO2. […]\nThe incubation was terminated by adding the detection reagent (19 parts of 1% CHAPS, 5 parts Emerald-II and 1 part Galacton-Star), equivalent to 50% of the assay volume to each wells. Plates were incubated for 1 hour in the dark at room temperature, followed by chemiluminescence detection using a microplate reader.\nData were analysed by generating nonlinear regression curves. […]"}},
  "data": [
    {"smiles": "CCCCCc1cc(O)c(C2C=C(C)CCC2)c(O)c1S(=O)(=O)N(CC)CC", "note": "(stereo not shown) [Compound 62c, N,N-diethyl-2,6-dihydroxy-5′-methyl-4-pentyl-1′,2′,3′,4′-tetrahydro-[1,1′-biphenyl]-3-sulfonamide]", "values": [
      {"measurement": "EC50", "setting": "human CB1 receptor [1]", "value": "~502", "unit": "nM"},
      {"measurement": "relative efficacy in comparison to CP55,940", "setting": "human CB1 receptor [1]; AequoScreen, agonist mode, CHO-K1 aeq/G16 cells transfected with CNR1", "value": "about 117%"},
      {"measurement": "IC50", "setting": "human CB2 receptor; [3H]CP 55,940 displacement, CHO-K1 membranes expressing human CB2 receptor", "value": "< 100", "unit": "nM"},
      {"measurement": "Selectivity CB2", "setting": "human CB2 receptor; fold difference in binding between CB1 and CB2, shown in the column of the receptor with higher affinity, 1.00 in both = about same affinity", "value": 31.82, "unit": "fold"},
      {"measurement": "IC50", "setting": "human CB1 receptor [2]", "value": "100 to 990", "unit": "nM"},
      {"measurement": "EC50", "setting": "human CB1 receptor [3]", "value": "~499", "unit": "nM"},
      {"measurement": "relative efficacy in comparison to CP55,940", "setting": "human CB1 receptor [3]; agonist mode, PathHunter CHO-K1 CNR1 β-Arrestin cells", "value": "about 56%"}
    ]}
  ]
}
